Our source for the logD values is the SangsterLogP compilation.

A short description of the series: method code SF-AS, from PMID: 4730594. Conditions: pH 7.0.

SMILES strings stand for the structures.

For `CS(=O)(=O)c1cc[n+]([O-])c2ccccc12`, the logD (as a rule, the decadic logarithm of the distribution of all forms, ionised or not, between an organic phase and buffer at a given pH) came to 0.12.

The molecule `O=[N+]([O-])c1cc[n+]([O-])c2ccccc12` showed a logD of 1.02.

The molecule `O=[N+]([O-])c1cc[n+]([O-])c2c([N+](=O)[O-])cccc12` gave a logD of 0.76.

`CC(=O)ONc1ccnc2ccccc12` gave a logD of 0.97.

As to `NC(=O)Cc1cc[n+]([O-])c2ccccc12`, the logD is -0.11.

As to `CCCCc1ccc2c(c1)c([N+](=O)[O-])cc[n+]2[O-]`, the logD was determined as 2.08.

With `O=[N+]([O-])c1ccc2c(ccc[n+]2[O-])c1`, the logD worked out at 0.39.

Turning to `O=[N+]([O-])c1cccc2ccc[n+]([O-])c12`, the logD turned out to be 0.04.

Consider `Cc1cccc2c1c([N+](=O)[O-])cc[n+]2[O-]`, for which the logD was determined as 1.36.

`CC(=O)ON=c1ccn(OC(C)=O)c2ccccc12` returned a logD of 1.04.

With `O=[N+]([O-])c1c(Cl)c[n+]([O-])c2ccccc12`, the logD was 1.33.

For `O=[N+]([O-])c1ccc2ccc[n+]([O-])c2c1`, the logD is 0.36.

`Cc1cc([N+](=O)[O-])c2ccccc2[n+]1[O-]` registered a logD of 1.25.

For `Cc1ccc2c([N+](=O)[O-])cc[n+]([O-])c2c1`, the logD amounted to 1.42. The logD values of the last two molecules are within 0.2 log units of each other.

In turn, `O=[N+]([O-])c1cccc2c1ccc[n+]2[O-]` gave a logD of 0.49.

`O=[N+]([O-])c1cccc2c1c([N+](=O)[O-])cc[n+]2[O-]`: the logD stood at 0.95.

`O=[N+]([O-])c1cc2ccccc2[n+]([O-])c1`: the log distribution coefficient (logD) amounted to 0.56.

For the molecule `O=[N+]([O-])c1ccc2c(c1)c([N+](=O)[O-])cc[n+]2[O-]`, the logD came out at 0.9.

`Cc1c[n+]([O-])c2ccccc2c1[N+](=O)[O-]` showed a logD of 1.06.

Regarding `O=c1ccn(O)c2ccccc12`, the logD was -0.47.

The molecule `Cc1cccc2c([N+](=O)[O-])cc[n+]([O-])c12` came in with a logD of 1.59.

Take `CC(C)(C)c1ccc2c(c1)c([N+](=O)[O-])cc[n+]2[O-]`: the logD turned out to be 1.51.

For the molecule `O/N=c1/ccn(O)c2ccccc12`, the logD turned out to be 0.

`Cc1ccc2c(c1)c([N+](=O)[O-])cc[n+]2[O-]`: the logD worked out at 1.43.

`O=[N+]([O-])c1cc[n+]([O-])c2ccc(Cl)cc12` gave a logD of 1.41.

In turn, `O=[N+]([O-])c1cc[n+]([O-])c2c(F)cccc12` displayed a logD of 1.

The molecule `[O-][n+]1ccc(Cl)c2ccccc21` gave a logD of 1.08.
